How the values were obtained:
[1] = test system: KB cells (human naso-pharangeal carcinoma); assay: Test (b) KB cell proliferation assay; format: cell-based; conditions: 96 h, EGF 1 ng/ml, 4 days, MTT, read-out: IC50 (nM) Test (b): EGFR driven KB cell proliferation assay
Description: b) KB Cell Proliferation Assay
This assay measures the ability of a test compound to inhibit the EGF driven proliferation of KB cells (human naso-pharangeal carcinoma obtained from the American Type Culture Collection (ATCC)).
KB cells were cultured in Dulbecco's modified Eagle's medium (DMEM) containing 10% foetal calf serum, 2 mM glutamine and non-essential amino acids at 37° C. in a 7.5% CO2 air incubator. Cells were harvested from the stock flasks using Trypsin/ethylaminediaminetetraacetic acid (EDTA). Cell density was measured using a haemocytometer and viability was calculated using trypan blue solution before being seeded at a density of 1.25×10^3 cells per well of a 96 well plate in DMEM containing 2.5% charcoal stripped serum, 2 mM glutamine and non-essential amino acids at 37° C. in 7.5% CO2 and allowed to settle for 4 hours.
Following adhesion to the plate, the cells are treated with or without EGF (final concentration of 1 ng/ml) and with or without compound at a range of concentrations in dimethylsulfoxide (DMSO) (1% final) in a final volume of 200 μl before incubation for 4 days at 37° C. in 7.5% CO2. Following the incubation period, cell numbers were determined by addition of 50 μl of 3-(4,5-Dimethylthiazol-2-yl)-2,5-diphenyltetrazolium bromide (MTT) (stock 5 mg/ml) and incubated at 37° C. in a 7.5% CO2 air incubator for 2 hours. MTT solution was then removed from the cells by aspiration, which were then allowed to air dry and were dissolved upon the addition of 100 μl of DMSO.
Absorbance of this solubilised cells was read at 540 nm to quantify cell biomass. Inhibition of proliferation was expressed as an IC50 value. This was determined by calculation of the concentration of compound that was required to give 50% inhibition of proliferation. The range of proliferation was calculated from the positive (vehicle plus EGF) and negative (vehicle minus EGF) control values.

[2] = biological target: T1, erbB2 tyrosine kinase (Homo sapiens, UniProt P04626); assay: Test (a) protein tyrosine kinase phosphorylation assay, erbB2; format: biochemical; conditions: recombinant intracellular fragment; ATP at Km concentration; read-out: IC50 (nM) Test (a): Inhibition of erbB2 tyrosine kinase protein phosphorylation
T1 construct: Recombinant intracellular fragments of EGFR, erbB2 and erbB4; made in house; host or cells: baculovirus/Sf21 insect cells (cleared lysate used)
Description: (§1) a) Protein Tyrosine Kinase Phosphorylation Assays
(§2) Recombinant intracellular fragments of EGFR, erbB2 and erbB4 (accession numbers X00588, X03363 and L07868 respectively) were cloned and expressed in the baculovirus/Sf21 system. Lysates were prepared from these cells by treatment with ice-cold lysis buffer (20 mM N-2-hydroxyethylpiperizine-N′-2-ethanesulfonic acid (HEPES) pH7.5, 150 mM NaCl, 10% glycerol, 1% Triton X-100, 1.5 mM MgCl2, 1 mM ethylene glycol-bis(β-aminoethyl ether) N′,N′,N′,N′-tetraacetic acid (EGTA), plus protease inhibitors and then cleared by centrifugation.
(§3) Constitutive kinase activity of the recombinant protein was determined by its ability to phosphorylate a synthetic peptide (made up of a random co-polymer of Glutamic Acid, Alanine and Tyrosine in the ratio of 6:3:1). Specifically, Maxisorb™ 96-well immunoplates were coated with synthetic peptide ([…] of peptide in a 100 μl phosphate buffered saline (PBS) solution and incubated at 4° C. overnight). Plates were washed in PBS-T (phosphate buffered saline with 0.5% Tween 20) then in 50 mM HEPES pH 7.4 at room temperature to remove any excess unbound synthetic peptide. EGFR, ErbB2 or ErbB4 tyrosine kinase activity was assessed by incubation in peptide coated plates for 20 minutes at 22° C. in 100 mM HEPES pH 7.4, adenosine trisphosphate (ATP) at Km concentration for the respective enzyme, 10 mM MnCl2, 0.1 mM Na3VO4, 0.2 mM DL-dithiothreitol (DTT), 0.1% Triton X-100 with test compound in DMSO (final concentration of 2.5%). Reactions were terminated by the removal of the liquid components of the assay followed by washing of the plates with PBS-T.
(§4) The immobilised phospho-peptide product of the reaction was detected by immunological methods. Firstly, plates were incubated for 90 minutes at room temperature with anti-phosphotyrosine primary antibodies that were raised in the mouse (4G10 from Upstate Biotechnology). Following extensive washing, plates were treated with Horseradish Peroxidase ([…]) conjugated sheep anti-mouse secondary antibody (NXA931 from Amersham) for 60 minutes at room temperature. After further washing, HRP activity in each well of the plate was measured […] using 22′-Azino-di-[3-ethylbenzthiazoline sulfonate (6)] diammonium salt crystals (ABTS™ from Roche) as a substrate.
(§5) Quantification of colour development and thus enzyme activity was achieved by the measurement of absorbance at 405 nm on a Molecular Devices ThermoMax microplate reader. Kinase inhibition for a given compound was expressed as an IC50 value. This was determined by calculation of the concentration of compound that was required to give 50% inhibition of phosphorylation in this assay. The range of phosphorylation was calculated from the positive (vehicle plus ATP) and negative (vehicle minus ATP) control values.

[3] = biological target: T2, EGFR tyrosine kinase (Homo sapiens, UniProt P00533); assay: Test (a) protein tyrosine kinase phosphorylation assay, EGFR; format: biochemical; conditions: recombinant intracellular fragment; ATP at Km concentration; read-out: IC50 (nM) Test (a): Inhibition of EGFR tyrosine kinase protein phosphorylation
T2 construct: Recombinant intracellular fragments of EGFR, erbB2 and erbB4; made in house; host or cells: baculovirus/Sf21 insect cells (cleared lysate used)
Description: as §1
This test measures the ability of a test compound to inhibit the phosphorylation of a tyrosine containing polypeptide substrate by EGFR tyrosine kinase enzyme.
as §2, §3, §4, §5

T1 sequence (P04626 676-1255 limits assumed): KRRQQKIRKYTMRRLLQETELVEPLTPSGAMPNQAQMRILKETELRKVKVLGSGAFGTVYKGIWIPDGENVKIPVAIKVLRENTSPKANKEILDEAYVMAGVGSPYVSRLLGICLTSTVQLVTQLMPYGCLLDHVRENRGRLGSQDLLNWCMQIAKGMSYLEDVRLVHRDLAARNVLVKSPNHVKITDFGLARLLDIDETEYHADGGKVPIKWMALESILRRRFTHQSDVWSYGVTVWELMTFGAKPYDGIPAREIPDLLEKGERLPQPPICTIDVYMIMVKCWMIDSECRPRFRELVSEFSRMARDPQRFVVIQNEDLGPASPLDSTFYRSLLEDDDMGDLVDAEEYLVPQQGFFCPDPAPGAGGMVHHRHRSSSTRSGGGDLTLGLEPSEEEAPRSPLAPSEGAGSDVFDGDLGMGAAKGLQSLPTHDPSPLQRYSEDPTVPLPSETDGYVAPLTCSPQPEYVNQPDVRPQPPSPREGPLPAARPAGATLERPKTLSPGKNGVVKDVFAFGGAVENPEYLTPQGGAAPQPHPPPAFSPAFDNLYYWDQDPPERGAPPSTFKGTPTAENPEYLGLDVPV
T2 sequence (P00533 669-1210 limits assumed): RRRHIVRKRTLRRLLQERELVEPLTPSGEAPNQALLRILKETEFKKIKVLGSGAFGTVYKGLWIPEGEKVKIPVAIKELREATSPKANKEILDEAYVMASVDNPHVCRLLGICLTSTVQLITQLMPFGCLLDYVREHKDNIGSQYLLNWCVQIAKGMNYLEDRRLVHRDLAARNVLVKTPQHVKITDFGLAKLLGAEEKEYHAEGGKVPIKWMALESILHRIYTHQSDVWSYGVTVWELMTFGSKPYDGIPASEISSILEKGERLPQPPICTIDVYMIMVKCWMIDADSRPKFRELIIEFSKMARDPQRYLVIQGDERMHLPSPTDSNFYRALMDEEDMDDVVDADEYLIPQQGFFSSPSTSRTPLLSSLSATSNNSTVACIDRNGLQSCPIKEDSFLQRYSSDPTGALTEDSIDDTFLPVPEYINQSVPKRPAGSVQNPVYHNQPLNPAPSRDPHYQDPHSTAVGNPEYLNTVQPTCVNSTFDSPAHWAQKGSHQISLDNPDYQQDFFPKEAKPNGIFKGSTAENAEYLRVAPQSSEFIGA

| IC50 [1] [nM] | IC50 [2] [nM] | IC50 [3] [nM] | Compound |
| --- | --- | --- | --- |
| 141 | 1850 | 70 | COc1cc(OC[C@@H]2CCCN2C(=O)CN(C)C)c2c(Nc3ccc(F)c(Cl)c3)ncnc2c1 [Example 2, N-(3-Chloro-4-fluorophenyl)-5-({(2S)-1-[(dimethylamino)acetyl]pyrrolidin-2-yl}methoxy)-7-methoxyquinazolin-4-amine] |
| 91 | 275 | 9 | COc1cc(OC[C@H]2CCCN2C(=O)CO)c2c(Nc3ccc(F)c(Cl)c3)ncnc2c1 [Example 3, 2-{(2R)-2-[({4-[3-Chloro-4-fluoroanilino]-7-methoxyquinazolin-5-yl}oxy)methyl]pyrrolidin-1-yl}-2-oxoethanol] |
| 138 | 252 | 39 | COc1cc(OC[C@H]2CCCN2C(=O)CN(C)C)c2c(Nc3ccc(F)c(Cl)c3)ncnc2c1 [Example 4] |
| 130 | 1630 | 57 | COc1cc(OC[C@@H]2CCCN2C(=O)CN2CCCC2)c2c(Nc3ccc(F)c(Cl)c3)ncnc2c1 [Example 6, N-(3-Chloro-4-fluorophenyl)-7-methoxy-5-{[(2S)-1-(pyrrolidin-1-ylacetyl)pyrrolidin-2-yl]methoxy}quinazolin-4-amine] |
| 28 | 358 | 1 | COc1cc(OC[C@H]2CCCN2C(C)=O)c2c(Nc3ccc(F)c(Cl)c3)ncnc2c1 [Example 13, 5-{[(2R)-1-Acetylpyrrolidin-2-yl]methoxy}-N-(3-chloro-4-fluorophenyl)-7-methoxyquinazolin-4-amine] |
| 128 | 52 | 1 | O=C(CO)N1CCC[C@@H]1COc1cc(OCCO)cc2ncnc(Nc3ccc(F)c(Cl)c3)c12 [Example 16, 2-[(2R)-2-({[4-[3-Chloro-4-fluoroanilino]-7-(2-hydroxyethoxy)quinazolin-5-yl]oxy}methyl)pyrrolidin-1-yl]-2-oxoethanol] |
| 99 | 85 | 8 | CCOCCOc1cc(OC[C@H]2CCCN2C(=O)CO)c2c(Nc3ccc(F)c(Cl)c3)ncnc2c1 [Example 18, 2-[(2R)-2-({[4-[3-Chloro-4-fluoroanilino]-7-(2-ethoxyethoxy)quinazolin-5-yl]oxy}methyl)pyrrolidin-1-yl]-2-oxoethanol] |
| 75 | 61 | 1 | COc1cc(OC[C@H]2C[C@H](O)CN2C(C)=O)c2c(Nc3ccc(F)c(Cl)c3)ncnc2c1 [Example 22, (3S,5R)-1-Acetyl-5-[({4-[3-chloro-4-fluoroanilino]-7-methoxyquinazolin-5-yl}oxy)methyl]pyrrolidin-3-ol] |
| 288 | 1730 | 56 | COCC(=O)N1C[C@@H](O)C[C@@H]1COc1cc(OC)cc2ncnc(Nc3ccc(F)c(Cl)c3)c12 [Example 23, (3S,5R)-5-[({4-[3-Chloro-4-fluoroanilino]-7-methoxyquinazolin-5-yl}oxy)methyl]-1-(methoxyacetyl)pyrrolidin-3-ol] |
| 156 | 1910 | 32 | COc1cc(OC[C@@H]2C[C@@H](O)CN2C(=O)CO)c2c(Nc3ccc(F)c(Cl)c3)ncnc2c1 [Example 25, (3R,5S)-5-[({4-[3-Chloro-4-fluoroanilino]-7-methoxyquinazolin-5-yl}oxy)methyl]1-glycoloylpyrrolidin-3-ol] |
| 112 | 532 | 42 | COc1cc(OC[C@@H]2C[C@H](O)CN2C(=O)CN(C)C)c2c(Nc3ccc(F)c(Cl)c3)ncnc2c1 [Example 31, (3S,5S)-5-[({4-[3-Chloro-4-fluoroanilino]-7-methoxyquinazolin-5-yl}oxy)methyl]-1-(N,N-dimethylglycyl)pyrrolidin-3-ol] |
| 118 | 215 | 18 | COc1cc(OC[C@H]2C[C@@H](O)CN2C(=O)CO)c2c(Nc3ccc(F)c(Cl)c3)ncnc2c1 [Example 32, (3R,5R)-5-[({4-[3-Chloro-4-fluoroanilino]-7-methoxyquinazolin-5-yl}oxy)methyl]-1-glycoloylpyrrolidin-3-ol] |

— patent US7659279B2, “Quinazoline derivatives and their use in the treatment of cancer” (AstraZeneca AB, priority 2003, dated 2010)
